Legend:
rgRSV224 virus = assay: microbe, parasite or virus in culture; format: cell-based, respiratory syncytial virus (RSV); settings: human respiratory syncytial virus, HeLa, 72 h, read-out: RSV HELA pEC50, rgRSV224 virus (MOI=1), HeLa cells, GFP expression three days post-virus exposure (converted)
HeLa cells = assay: Cytotoxicity in HeLa cells, ATP content (ATPlite kit); settings: three days incubation, CC50 = 50% concentration for cytotoxicity
Protocol: Black 384-well clear-bottom microtiter plates (Corning, Amsterdam, The Netherlands) were filled via acoustic drop ejection using the echo liquid handler (Labcyte, Sunnyvale, Calif.). 200 nL of compound stock solutions (100% DMSO) were transferred to the assay plates. 9 serial 4-fold dilutions of compound were made, creating per quadrant the same compound concentration. The assay was initiated by adding 10 μL of culture medium to each well (RPMI medium without phenol red, 10% FBS-heat inactivated, 0.04% gentamycin (50 mg/mL). All addition steps are done by using a multidrop dispenser (Thermo Scientific, Erembodegem, Belgium). Next, rgRSV224 virus (MOI=1) diluted in culture medium was added to the plates. rgRSV224 virus is an engineered virus that includes an additional GFP gene (Hallak L K, Spillmann D, Collins P L, Peeples M E. Glycosaminoglycan sulfation requirements for respiratory syncytial virus infection; Journal of virology (2000), 74(22), 10508-13) and was in-licensed from the NIH (Bethesda, Md., USA). Finally, 20 μL of a HeLa cell suspension (3,000 cells/well) were plated. Medium, virus- and mock-infected controls were included in each test. The wells contain 0.05% DMSO per volume. Cells were incubated at 37° C. in a 5% CO2 atmosphere. Three days post-virus exposure, viral replication was quantified by measuring GFP expression in the cells by an in house developed MSM laser microscope (Tibotec, Beerse, Belgium). The EC50 was defined as the 50% inhibitory concentration for GFP expression. In parallel, compounds were incubated for three days in a set of white 384-well microtiter plates (Corning) and the cytotoxicity of compounds in HeLa cells was determined by measuring the ATP content of the cells using the ATPlite kit (Perkin Elmer, Zaventem, Belgium) according to the manufacturer's instructions. The CC50 was defined as the 50% concentration for cytotoxicity.

| SMILES | EC50 (rgRSV224 virus) [nM] | melting point [°C] | SI TOX HELA (HeLa cells) |
| --- | --- | --- | --- |
| Cc1nc2c(N3CCCCC3c3cc4nc(N5CCC5)cc(N5CCOCC5)n4n3)ncnc2s1 (stereo not drawn) [P20, 4-(5-(azetidin-1-yl)-2-(1-(2-methylthiazolo[5,4-d]pyrimidin-7-yl)-piperidin-2-yl)pyrazolo[1,5-a]pyrimidin-7-yl)morpholine] | 631 | 229.8 | 5.4 |
| Cc1nc(N2CCCCC2c2cc3nc(N4CC(N)C4)c(C)cn3n2)c2c(C)cccc2n1 (stereo not drawn) [P27, 1-(2-(1-(2,5-dimethylquinazolin-4-yl)piperidin-2-yl)-6-methyl-pyrazolo[1,5-a]pyrimidin-5-yl)azetidin-3-amine] | 631 | 176.85 | 4.5 |
| Cc1ccc2ncnc(N3CCCCC3c3cc4nc(N5CCC5)c(C)cn4n3)c2c1 (stereo not drawn) [P11, 4-(2-(5-(azetidin-1-yl)-6-methylpyrazolo[1,5-a]pyrimidin-2-yl)-piperidin-1-yl)-6-methylquinazoline] | 126 | 205.49 | <4.6 |
| COC(=O)N(C(=O)OC)c1nc(N2CCCCC2c2cc3nc(N4CCC4)cc(N4CCOCC4)n3n2)c2c(C)cccc2n1 (stereo not drawn) [P28, dimethyl (4-{2-[5-(azetidin-1-yl)-7-(morpholin-4-yl)pyrazolo[1,5-a]-pyrimidin-2-yl]piperidin-1-yl}-5-methylquinazolin-2-yl)imidodicarbonate] | 794 | 136.62 | <4 |
| Cc1ccc2ncnc(N3CCCCC3c3cc4nc(N5CCC5)cc(C)n4n3)c2c1 (stereo not drawn) [P21, 4-(2-(5-(azetidin-1-yl)-7-methylpyrazolo[1,5-a]pyrimidin-2-yl)-piperidin-1-yl)-6-methylquinazoline] | 398 | 192.43 | <4.6 |
| Cc1nnn(C)c1-c1nc(N2CCCCC2c2cc3nc(N4CCC4)cc(N4CCOCC4)n3n2)c2c(C)cccc2n1 (stereo not drawn) [P73, 4-(5-(azetidin-1-yl)-2-(1-(2-(1,4-dimethyl-1H-1,2,3-triazol-5-yl)-5-methylquinazolin-4-yl)piperidin-2-yl)pyrazolo[1,5-a]pyrimidin-7-yl)morpholine] | 126 | 238.91 | 4.8 |
| COc1cccc2ncnc(N3CCCCC3c3cc4nc(N5CCC5)cc(N5CCOCC5)n4n3)c12 (stereo not drawn) [P74, 4-(5-(azetidin-1-yl)-2-(1-(5-methoxyquinazolin-4-yl)piperidin-2-yl)-pyrazolo[1,5-a]pyrimidin-7-yl)morpholine] | 15.8 |  | <4.6 |
| Cc1cccc2nc(C(N)=O)nc(N3CCCCC3c3cc4nc(N5CCC5)cc(N5CCOCC5)n4n3)c12 (stereo not drawn) [P46, 4-(2-(5-(azetidin-1-yl)-7-morpholinopyrazolo[1,5-a]pyrimidin-2-yl)-piperidin-1-yl)-5-methylquinazoline-2-carboxamide] | 316 |  | 4.3 |
| Cc1cccc2ncnc(N3CCCCC3c3cc4nc(N5CCC5)cc(N5CCOCC5)n4n3)c12 (stereo not drawn) [P17, 4-(5-(azetidin-1-yl)-2-(1-(5-methylquinazolin-4-yl)piperidin-2-yl)-pyrazolo[1,5-a]pyrimidin-7-yl)morpholine] | 3.98 |  | 4.4 |
| Cc1nc(N2CCCCC2c2cc3nc(N4CCC4)cc(N4CCOCC4)n3n2)c2cc[nH]c2n1 (stereo not drawn) [P15, 4-(5-(azetidin-1-yl)-2-(1-(2-methyl-7H-pyrrolo[2,3-d]pyrimidin-4-yl)-piperidin-2-yl)pyrazolo[1,5-a]pyrimidin-7-yl)morpholine] | 251 |  | 4.0 |
| COC(=O)Nc1nc(N2CCCCC2c2cc3nc(N4CCC4)cc(N4CCOCC4)n3n2)c2c(C)cccc2n1 (stereo not drawn) [P29, methyl (4-(2-(5-(azetidin-1-yl)-7-morpholinopyrazolo[1,5-a]-pyrimidin-2-yl)piperidin-1-yl)-5-methylquinazolin-2-yl)carbamate] | 398 |  | 4.5 |
| CS(=O)(=O)Nc1nc(N2CCCCC2c2cc3nc(N4CCC4)cc(N4CCOCC4)n3n2)c2ccccc2n1 (stereo not drawn) [P10, N-(4-(2-(5-(azetidin-1-yl)-7-morpholinopyrazolo[1,5-a]pyrimidin-2-yl)piperidin-1-yl)quinazolin-2-yl)methanesulfonamide] | 631 |  | <4.3 |
| Cc1ccc2ncnc(N3CCCCC3c3cc4nc(N5CC(O)C5)c(C)cn4n3)c2c1 (stereo not drawn) [P12, 1-(6-methyl-2-(1-(6-methylquinazolin-4-yl)piperidin-2-yl)pyrazolo-[1,5-a]pyrimidin-5-yl)azetidin-3-ol] | 200 | 233.08 | <4 |
| CCc1cccc2ncnc(N3CCCCC3c3cc4nc(N5CCC5)cc(N5CCOCC5)n4n3)c12 (stereo not drawn) [P58, 4-(5-(azetidin-1-yl)-2-(1-(5-ethylquinazolin-4-yl)piperidin-2-yl)-pyrazolo[1,5-a]pyrimidin-7-yl)morpholine] | 501 |  | <4 |
| Fc1cccc2ncnc(N3CCCCC3c3cc4nc(N5CCC5)cc(N5CCOCC5)n4n3)c12 (stereo not drawn) [P60, 4-(5-(azetidin-1-yl)-2-(1-(5-fluoroquinazolin-4-yl)piperidin-2-yl)-pyrazolo[1,5-a]pyrimidin-7-yl)morpholine] | 126 |  | 4.3 |
| Cc1ccc2ncnc(N3CCCC[C@H]3c3cc4nc(N5CCC(N)C5)ccn4n3)c2c1 (stereo in doubt) [P51, (S)-1-(2-((S)-1-(6-methylquinazolin-4-yl)piperidin-2-yl)pyrazolo-[1,5-a]pyrimidin-5-yl)pyrrolidin-3-amine] | 316 |  | 4.3 |
| Cc1ccc2nc(C)nc(N3CCCC[C@@H]3c3cc4nc(N5CC(O)C5)c(C)cn4n3)c2c1 [P44, (R)-1-(2-(1-(2,6-dimethyl-quinazolin-4-yl)piperidin-2-yl)-6-methylpyrazolo[1,5-a]pyrimidin-5-yl)azetidin-3-ol] | 794 |  | 4.2 |
| Cc1cccc2nc(NS(C)(=O)=O)nc(N3CCCCC3c3cc4nc(N5CCC5)cc(N5CCOCC5)n4n3)c12 (stereo not drawn) [P9, N-(4-(2-(5-(azetidin-1-yl)-7-morpholinopyrazolo[1,5-a]pyrimidin-2-yl)piperidin-1-yl)-5-methylquinazolin-2-yl)methanesulfonamide] | 5.01 |  | <4.6 |
| COC(=O)c1nc(N2CCCCC2c2cc3nc(N4CCC4)cc(N4CCOCC4)n3n2)c2c(C)cccc2n1 (stereo not drawn) [P67, methyl 4-(2-(5-(azetidin-1-yl)-7-morpholinopyrazolo[1,5-a]pyrimidin-2-yl)piperidin-1-yl)-5-methylquinazoline-2-carboxylate] | 126 |  | <4.3 |

Reference: US9981976B2, “Piperidine substituted pyrazolo[1,5-A]pyrimidine derivatives with inhibitory activity on the replication of the respiratory syncytial virus (RSV)” (priority 2014, dated 2018)
